Tests used:
[1] = system: panel of recombinant phosphatases; assay: Selectivity against a panel of recombinant phosphatases; type: biochemical; conditions: all panel phosphatases except the closely related HPTPeta
Procedure: FIG. 10. Compound 1 ((R)-[1-Methylcarbamoyl-2-(4-sulfoamino-phenyl)-ethyl]-carbamic acid tert-butyl ester) is a selective HPTPbeta inhibitor. Compound 1 was assayed for inhibition of a panel of recombinant phosphatases essentially as described in Example 2 for HPTPbeta. This compound was at least 10 fold selective for HPTPbeta over the other phosphatases tested except for the closely related HPTPeta.
Methods: The potency of a class of HPTPbeta inhibitors was optimized by iterative screening for inhibition of HPTPbeta activity measured as described in Example 2. […] To determine selectivity, compound 1 was tested against a panel of several other recombinant phosphatases (FIG. 10). VEGFR2 and Tie-2 receptor activation was assayed as mentioned in example 4. However, to assess the effect of the HPTPbeta inhibitor, the cells were pretreated for 30 minutes prior to stimulation with either 0.1 mM or 1 mM Compound 1 in Opti-MEM media (Invitrogen) at 37° C./5% CO2. Results: A potent and selective HPTPbeta inhibitor (Compound 1) was developed (see Example 11) as an agent to enhance the activation of VEGFR2 and Tie2 (FIG. 10). Compound was at least 10 fold selective for HPTPbeta versus the any of the other phosphatases except for the closely related HPTPeta. […] Clearly, these assays could be used to optimize the potency and selectivity and to test the efficacy of other HPTPbeta inhibitors.

[2] = system: Human umbilical vein endothelial cells (HUVEC); assay: Endothelial cell survival (CellTiter-Glo); type: cell-based; conditions: 500 μM compound
Procedure: Methods: Human umbilical vein endothelial cells (HUVEC, Clonetics) were seeded at 10,000/well in a 96-well plate for 2 hours in EGM media (Clonetics). The cells were then serum-deprived for 2 hours in DMEM (Invitrogen) supplemented with 0.2% bovine serum albumin. Quadruplicate wells were then treated with either vehicle or 500 μM Compound in the presence or absence of either 500 pM recombinant human VEGF165 or 250 ng/mL recombinant human Angiopoietin-1 (Ang-1) (R&D Systems) for 72 hours in DMEM supplemented with 0.2% bovine serum albumin. Cells remaining after incubation were detected using the CellTiter-Glo™ System according to the manufacturers instructions (Promega) and measured using a Victor V plate reader (Perkin Elmer/Wallac).

VEGFR2 = assay: Ligand-induced VEGFR2 phosphorylation in endothelial cells (anti-phosphotyrosine western blot); type: cell-based, human; conditions: endothelial cells pretreated 30 minutes with 0.1 mM or 1 mM; vs vehicle; p<0.05
Procedure: (§1) VEGFR2 and Tie-2 receptor phosphorylation is assayed by anti-phosphotyrosine western blotting following immunoprecipitation of the receptors from endothelial cells or receptor transfected 293 cells. Briefly, endothelial cells (HUVEC's) are plated on 100 mm dishes, stimulated with a dose range of either recombinant VEGF165 or recombinant Angiopoietin-1 (R&D Systems, resuspended in PBS containing 0.2% bovine serum albumin) for 5 or 7 minutes, respectively. […] Signal is detected using HRP labeled secondary antibodies and ECL solution (Amersham). […] Resulting films are scanned and quantitated using Quantity-One software (Bio-Rad) and results reported as the amount of phosphotyrosine signal over receptor signal (P-Tyr/Receptor).
(§2) Transfection in HUVEC's is performed with the above-mentioned antisense oligos at a 200 nM final concentration using LIPOFECTIN™ (Invitrogen), a reagent for transfectin of endothelial cells and transfection of DNA or RNA into cell lines, in OPTIMEM™-I (Gibco), a modification of Eagles Minimum Essential Medium, buffered with HEPES and sodium bicarbonate (2.4 g/L) and supplemented with hypoxanthine, thymidine, sodium pyruvate, L-glutamine, trace elements, and growth factors, according to the manufacturers instructions. […] Uptake efficiency is monitored in every transfection using a fluorescently labeled oligonucleotide and determined to be >90% in every experiment.” […]

Tie-2 = assay: Ligand-induced Tie-2 phosphorylation in endothelial cells (anti-phosphotyrosine western blot); type: cell-based, human; conditions: endothelial cells pretreated 30 minutes with 0.1 mM or 1 mM; vs vehicle; p<0.05
Procedure: as §1, §2

HPTPbeta = biological target: T1, HPTPbeta (Homo sapiens, UniProt P23467); assay: Inhibition of recombinant HPTPbeta phosphatase activity (DiFMUP substrate); type: biochemical; conditions: assay as in Example 2
T1 construct: GST (N, cleaved yes); His6 (C); made in house; host or cells: E. coli BL21-RIL
Procedure: Methods: Expression and purification of recombinant HPTPbeta catalytic domain [SEQ ID NO: 16] is accomplished by subcloning the intracellular domain of HPTPbeta (cDNA clone starting at the codon for amino acid 1662 through the stop codon) into the pGEX4T1 vector (Pharmacia) and expressed as a GST-fusion protein in E. coli BL21-RIL cells (Stratagene). Induced cells are thawed on ice and resuspended in 20 mM Tris-HCl, pH=8.0, 1% Trition x-100, 2 mM DTT and EDTA-free protease inhibitor cocktail. 10 mg/ml lysozyme is added and cells are lysed by sonication. The cell debris is pelleted using the Beckman J2-MI at 17,000 rpm. The supernatant is added to prepared glutathione sepharose 4B resin batch method. After binding, the column is poured and packed with the resin/protein mixture and then washed. […]
Measurements of recombinant phosphatase activity are performed using the substrate DiFMUP (6,8-difluoro-4-methylumbelliferyl phosphate) from Molecular Probes. […] Measurements of increased substrate fluorescence, indicative of phosphatase activity, are observed at an excitation wavelength of 355 nm and an emission wavelength of 460 nm using a Victor V plate reader (Wallac).
Methods: The potency of a class of HPTPbeta inhibitors was optimized by iterative screening for inhibition of HPTPbeta activity measured as described in Example 2. […]

[3] = system: Rat thoracic aortic rings; assay: Rat aortic ring explant angiogenesis assay; conditions: 100 μM and 300 μM; p<0.05 vs control
Procedure: Methods: The isolated rat aortic ring model of angiogenesis is performed using the thoracic aorta from 150-175 gram, male Sprague-Dawley rats (Charles River). The excised thoracic aorta is placed in sterile saline solution and transferred to endothelial basal media (EBM, Clonetics) containing 1% antibiotics/antimycotic (Gibco BRL). Periadventitial fibroadipose tissue and any visible blood clots were removed. Aortas are cross-sectioned at ˜1 mm intervals and the resulting tissues placed in 100 μl of Dulbecco's Modified Eagle Medium (DMEM) containing 2% FBS, in the presence or absence of adenovirus for green fluorescent protein, empty virus or HPTPbeta (all at 1.0×10^11 virus particles/ml), as described. Rings are incubated for 30 minutes at 37° C. in a humidified incubator under a constant 5% CO2 atmosphere. Following adenoviral infection, aortic rings were washed with EBM and placed in a 24-well tissue culture plate. Aortic rings are overlaid with 450 μl of collagen solution consisting of 8 volumes of 3 mg/ml rat tail collagen (Sigma) in 0.1% acetic acid, 1 volume of 10× M-199 supplemented with 100 mg/ml L-glutamine, and 1 volume of 10× collagen buffer (0.0SN NaOH, 200 mM HEPES, 260 mM NaHCO3). […] Images (TIFF) are taken using a SPOT camera connected to a Nikon inverted microscope and analyzed (vessel extent and area) using automated image analysis software. […]

HUVEC = assay: In-cell phosphatase activity (DiFMUP) in HPTPbeta adenovirus infected HUVECs; type: cell-based, human; conditions: 500 μM
Procedure: In cell phosphatase assays are accomplished by infecting Human Umbilical Vein Endothelial Cells with HPTPbeta, GFP, or Empty adenovirus in 100 mm dishes for 24 hours. Infected cells were trypsinized and re-plated at 5,000 cells/well in a 96 well plate and allowed to attach for 2 hours in complete growth medium (EGM). Complete medium was replaced with Hanks Buffered Saline (HBSS, Gibco) and substrate fluorescence are measured 15 minutes after the addition of 100 uM DiFMUP substrate (Molecular Probes) using a Victor V plate reader as mentioned in Example 2.

HEK293H cells = assay: In-cell phosphatase activity (DiFMUP) in HPTPbeta-transfected HEK293H cells; type: cell-based, human; conditions: 500 μM, 15 minutes pre-incubation
Procedure: For phosphatase activity in human embryonic kidney cells, HEK293H (Gibco) are grown in suspension in 293SFM media (Gibco) and transfected on 100 mm dishes using LIPOFECTAMINE™ 2000 (Invitrogen), a proprietary formulation for the transfection of nucleic acids (DNA and RNA) into eukaryotic cells. After 24 hours cells are resuspended transferred back to shaker flasks for an additional 24 hours. Phosphatase activity is measured using DiFMUP in 96 well plates as above with 100,000 cells/well. For inhibition of tyrosine phosphatases, the cells are pre-incubated with Bis-maloalto-organovanadium (BMOV) for 15 minutes prior to the addition of DIFMUP. HPTPbeta protein expression is confirmed after each experiment in parallel plates by western blotting.

T1 sequence (P23467 with tags, fused parts or gaps): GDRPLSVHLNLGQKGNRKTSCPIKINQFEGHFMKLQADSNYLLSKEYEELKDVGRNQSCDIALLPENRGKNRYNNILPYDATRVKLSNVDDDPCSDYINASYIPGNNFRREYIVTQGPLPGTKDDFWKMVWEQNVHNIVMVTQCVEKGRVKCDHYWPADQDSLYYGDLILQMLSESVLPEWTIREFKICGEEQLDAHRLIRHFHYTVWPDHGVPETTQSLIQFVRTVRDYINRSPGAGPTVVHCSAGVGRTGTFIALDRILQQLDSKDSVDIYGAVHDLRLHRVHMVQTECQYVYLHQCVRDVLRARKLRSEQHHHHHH

Row | Structure (SMILES) | selectivity for HPTPbeta over the other phosphatases tested [1] | cell survival with VEGF165 stimulation ([2]; 500 pM VEGF165, 72 hours, vs vehicle) | cell survival with Ang-1 stimulation ([2]; 250 ng/mL Ang-1, 72 hours, vs vehicle) | basal cell survival ([2]; no ligand, vs untreated controls) | ligand stimulated tyrosine phosphorylation of VEGFR2 (VEGFR2) | ligand stimulated tyrosine phosphorylation of Tie-2 (Tie-2) | potency of inhibition of HPTPbeta activity (HPTPbeta) | vessel area [3] | vessel extent [3] | phosphatase activity in HUVEC's (HUVEC) | phosphatase activity in HEK293H cells (HEK293H cells)
1 | CNC(=O)C(Cc1ccc(NS(=O)(=O)O)cc1)NC(=O)OC(C)(C)C (stereo in doubt) [Compound 1, (R)-[1-Methylcarbamoyl-2-(4-sulfoamino-phenyl)-ethyl]-carbamic acid tert-butyl ester] | at least 10 fold | increased cell survival | increased cell survival | increased basal levels of survival | increased | increased | nanomolar | significant increases | significant increases |  | 
2 | Cc1occc(=O)c1[O-].Cc1occc(=O)c1[O-].[O]=[V+2] [BMOV, Bis-maloalto-organovanadium] |  |  |  |  |  |  |  |  |  | inhibited | inhibited

Reference: patent US7632862B2, “Pharmaceutical compositions that modulate HPTPbeta activity” (Procter & Gamble Company, priority 2002, dated 2009)
